# Patent US9999220B2, “Method for repelling rodents” (Arkion Life Sciences, LLC, priority 2014, dated 2018)
# Legend:
# [1] = tested on: black-tailed prairie dogs; assay: Concentration-response repellency experiment, treated whole corn, black-tailed prairie dogs; type: in vivo, Cynomys ludovicianus; settings: black-tailed prairie dogs offered corn seeds treated with 0.5-4% anthraquinone (target concentrations), 1-day test
# Text: (§1) These values can also be used to form ranges, such as, for example, from about 15% to about 85% repellency, with preferred ranges for particular rodent families ranging from about 20-50%; 25-40%; 40-55%; and 55-85%. The percent repellency is based on the percentage of the treated item which is not consumed by the animal.
# (§2) We conducted a concentration-response experiment with an anthraquinone-based repellent (Avipel®, a.i. 50% 9,10-anthraquinone; Arkion Life Sciences, New Castle, Del.) to determine anthraquinone repellency for black-tailed prairie dogs (Cynomys ludovicianus, N=44 males and females; Werner et al. 2011). During a 3-day pre-test, we offered one bowl (untreated whole corn) in individual cages at 08:00 h, daily. […] We randomly assigned repellent treatments among groups. During the 1-day test, we offered one bowl (repellent-treated whole corn) at 08:00 h. Consumption of treated corn seeds was measured (±0.1 g) at 08:00 h on the day subsequent to the test.
# We observed 24-37% repellency (FIG. 1) during our concentration-response experiment with black-tailed prairie dogs offered corn seeds treated with 0.5-4% anthraquinone (target concentrations; Werner et al. 2011).
# California voles = assay: Concentration-response repellency experiment, treated whole oats, California voles; type: in vivo, Microtus californicus; settings: California voles offered oats treated with 0.5-2% anthraquinone (target concentrations), 1-day test
# Text: as §1
# as §2, with “California (Microtus californicus, N=30” for “black-tailed prairie dogs (Cynomys ludovicianus, N=44”, “females).” for “females; Werner et al. 2011).”, “oats)” for “corn)”, “oats” for “corn seeds”
# We observed 58-84% repellency (FIG. 2) during our concentration-response experiment with California voles offered oats treated with 0.5-2% anthraquinone (target concentrations).
# [2] = tested on: Richardson's ground squirrels; assay: Concentration-response repellency experiment, treated whole oats, Richardson's ground squirrels; type: in vivo, Urocitellus richardsonii; settings: Richardson's ground squirrels offered oats treated with 0.5-2% anthraquinone (target concentrations), 1-day test
# Text: as §1
# as §2, with “a.i.50%” for “a.i. 50%”, “Richardson's ground squirrels (Urocitellus richardsonii, N=28” for “black-tailed prairie dogs (Cynomys ludovicianus, N=44”, “females).” for “females; Werner et al. 2011).”, “oats)” for “corn)”, “oats” for “corn seeds”
# We observed 40-56% repellency (FIG. 3) during our concentration-response experiment with Richardson's ground squirrels offered oats treated with 0.5-2% anthraquinone (target concentrations).
# Sprague-Dawley rats = assay: 13-week single-choice feeding study in Sprague-Dawley rats (rat repellency example); type: in vivo; settings: for Body Weight Day 1: Day 1, mean ± SD; for Body Weight Week 3: Week 3, mean ± SD; for Body Weight Week 7: Week 7, mean ± SD; for Body Weight Week 13: Week 13, mean ± SD; for Total Weight Gain % difference from control / Total Weight Gain: over 13 weeks; for Total Weight Gain: mean ± SD
# Method: Anthraquinone is not a classic toxicant but a feeding study on Sprague-Dawley rats was done to determine effects of long term feeding where there was a single choice offered to rats over a 13 week period.
# Anthraquinones was administered to four groups of 10 male and 10 female Sprague-Dawley rats/group at concentrations of 0, 500, 2000, or 7500 ppm (0, 40, 125, or 495 mg/kg/day in males; 0, 44, 150, or 661 mg/kg/day in females) for 4 consecutive weeks. Beginning with Week 5, the 500 ppm diet was reduced to 200 ppm resulting in lowering the doses to 11 and 16 mg/kg/day for males and females, respectively, through the end of the 13-week experimental period.
# Significant reduction in feeding with a single choice indicates a non-lethal repellency.
# deer mice = assay: Concentration-response repellency experiment, treated whole oats, deer mice; type: in vivo, Peromyscus maniculatus; settings: deer mice offered oats treated with 0.25-2% anthraquinone (target concentrations), 1-day test
# Method: During a 3-day pre-test, we offered one bowl (untreated whole oats) in individual cages at 08:00 h, daily. […] We randomly assigned repellent treatments among groups. During the 1-day test, we offered one bowl (repellent-treated whole oats) at 08:00 h. Consumption of treated oats was measured (±0.1 g) at 08:00 h on the day subsequent to the test.
# [3] = females, 500 ppm diet (200 ppm from Week 5)
# [4] = males, 500 ppm diet (200 ppm from Week 5)
smiles,measurement,setting,value
"O=C1c2ccccc2C(=O)c2ccccc21 [anthraquinone, 9,10-anthraquinone]",repellency,[1],24-37%
same,repellency,California voles,58-84%
same,repellency,[2],40-56%
same,repellency observed (lack of weight gain from inhibited feeding),"Sprague-Dawley rats; 500 ppm in diet, single choice, 13 weeks",some repellency was observed
same,Body Weight Day 1,Sprague-Dawley rats; [3],185 ± 12.2 G
same,Body Weight Week 3,Sprague-Dawley rats; [3],223 ± 12.4 G
same,Body Weight Week 7,Sprague-Dawley rats; [3],254 ± 14.2 G
same,Body Weight Week 13,Sprague-Dawley rats; [3],274 ± 15.0 G
same,Total Weight Gain % difference from control,Sprague-Dawley rats; [3],−27%
same,Total Weight Gain,Sprague-Dawley rats; [3],89 ± 10.1 Grams
same,Body Weight Day 1,"Sprague-Dawley rats; females, 2000 ppm diet",188 ± 14.6 G
same,Body Weight Week 3,"Sprague-Dawley rats; females, 2000 ppm diet",212 ± 14.2 G
same,Body Weight Week 7,"Sprague-Dawley rats; females, 2000 ppm diet",238 ± 11.7 G
same,Body Weight Week 13,"Sprague-Dawley rats; females, 2000 ppm diet",247 ± 16.3 G
same,Total Weight Gain % difference from control,"Sprague-Dawley rats; females, 2000 ppm diet",−51%
same,Total Weight Gain,"Sprague-Dawley rats; females, 2000 ppm diet",59 ± 9.2 Grams
same,Body Weight Day 1,"Sprague-Dawley rats; females, 7500 ppm diet",189 ± 11.8 G
same,Body Weight Week 3,"Sprague-Dawley rats; females, 7500 ppm diet",204 ± 22.0 G
same,Body Weight Week 7,"Sprague-Dawley rats; females, 7500 ppm diet",226 ± 26.3 G
same,Body Weight Week 13,"Sprague-Dawley rats; females, 7500 ppm diet",217 ± 27.7 G
same,Total Weight Gain % difference from control,"Sprague-Dawley rats; females, 7500 ppm diet",−76%
same,Total Weight Gain,"Sprague-Dawley rats; females, 7500 ppm diet",29 ± 28.2 Grams
same,Body Weight Day 1,Sprague-Dawley rats; [4],252 ± 14.5 G
same,Body Weight Week 3,Sprague-Dawley rats; [4],379 ± 26.4 G
same,Body Weight Week 7,Sprague-Dawley rats; [4],471 ± 39.4 G
same,Body Weight Week 13,Sprague-Dawley rats; [4],528 ± 47.4 G
same,Total Weight Gain % difference from control,Sprague-Dawley rats; [4],−11%
same,Total Weight Gain,Sprague-Dawley rats; [4],275 ± 38.7 Grams
same,Body Weight Day 1,"Sprague-Dawley rats; males, 2000 ppm diet",250 ± 13.5 G
same,Body Weight Week 3,"Sprague-Dawley rats; males, 2000 ppm diet",359 ± 23.7 G
same,Body Weight Week 7,"Sprague-Dawley rats; males, 2000 ppm diet",443 ± 36.9 G
same,Body Weight Week 13,"Sprague-Dawley rats; males, 2000 ppm diet",498 ± 43.0 G
same,Total Weight Gain % difference from control,"Sprague-Dawley rats; males, 2000 ppm diet",−20%
same,Total Weight Gain,"Sprague-Dawley rats; males, 2000 ppm diet",247 ± 37.1 Grams
same,Body Weight Day 1,"Sprague-Dawley rats; males, 7500 ppm diet",250 ± 10.1 G
same,Body Weight Week 3,"Sprague-Dawley rats; males, 7500 ppm diet",342 ± 20.2 G
same,Body Weight Week 7,"Sprague-Dawley rats; males, 7500 ppm diet",425 ± 28.7 G
same,Body Weight Week 13,"Sprague-Dawley rats; males, 7500 ppm diet",470 ± 37.9 G
same,Total Weight Gain % difference from control,"Sprague-Dawley rats; males, 7500 ppm diet",−28%
same,Total Weight Gain,"Sprague-Dawley rats; males, 7500 ppm diet",221 ± 34.0 Grams
same,dietary concentration at which effective repellency began,"Sprague-Dawley rats; single choice diet, 13 weeks",approximately 2000 ppm
same,repellency,deer mice,19-52%
